Molecules are shown by their SMILES. Like-named read-outs stand apart in the source and are kept apart here. Where a SMILES comes first, the peptide text is derived from it. [ ]: non-standard residue; d: D form. NMeF = CN[C@@H](Cc1ccccc1)C(=O)O; dNMeA = CN[C@H](C)C(=O)O

A short description of one data set: in vitro. As to conditions: PAMPA, PAMPA_Papp_Avg. Background: PAMPA measures passive passage across an artificial lipid membrane.
For data set [1] the following is noted: PAMPA.
The test system of the next data set is Caco-2 cells. The experiment in a line: Caco-2 permeability assay (apical to basolateral). The data set is classed as in vitro ADME, human. As to conditions: Caco-2. The gist of the method: (§1)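 Caco-2 monolayers were grown on 0.4 μm Transwell inserts for 6 days. Peptides were applied apically at 50 μM with HBSS basolaterally and incubated 90 min at 37°C with shaking.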

The nature of data set [2]: Caco-2 permeability assay (apical to basolateral). Format: in vitro ADME, human. The gist of the method:
as §1
For orientation: Caco-2 cells form a polarised layer with tight junctions and transporters.

For data set [3] the following is noted: PAMPA, apparent permeability (Papp) in PAMPA.

In general, Papp refers to the rate of passage across a membrane or cell layer, normalised by area and donor concentration. In general, Papp A→B refers to how fast a substance crosses the layer from the apical side. Regarding `CC[C@H](C)[C@@H]1NC(=O)[C@H](Cc2ccccc2)N(C)C(=O)[C@H]2CCCN2C(=O)[C@H]([C@@H](C)CC)NC(=O)[C@@H](C)N(C)C(=O)[C@@H](C)NC(=O)[C@@H]2CCCN2C(=O)[C@H]2CCCN2C(=O)[C@H](CC(C)C)NC(=O)[C@@H](CC(C)C)NC(=O)[C@H](CC(C)C)NC(=O)[C@H]2CCCN2C1=O` [Design D12.6, DPRO *PHE ILE DPRO LEU DLEU LEU DPRO PRO DALA *DALA ILE] (cyclo([dA][dNMeA]I[dP][NMeF]I[dP]L[dL]L[dP]P)), the Papp in “in vitro” is 1.47 ×10⁻⁶ cm/s. In data set [1], this molecule showed a PAMPA_R1 of 2.43E-06 and a PAMPA_R3 of 1.22E-06. Further, in the data set on Caco-2 cells, the Caco_R1 was found to be 2.06 and the Caco_R3 worked out at 4.18. The molecule also returned a Papp A→B in data set [2] (Caco-2, Caco_Papp_Average) of 2.84 ×10⁻⁶ cm/s. In data set [2] (human, Caco-2), the Papp at 90 min, 50 µM was 2.84 ×10⁻⁶ cm/s. In data set [3], the Papp turned out to be 1.47 ×10⁻⁶ cm/s.

The record behind these values is article PMC9490236, “Accurate de novo design of membrane-traversing macrocycles” (Cell, 2022).
